Where “and” joins values, the source holds several entries; their conditions need not be identical. Identical values can stand only once. Inconclusive results and toxic doses are left out. Rule as the data show it: active = T/C of 150% or more; inactive = T/C below 125%.
Test system: L1210 leukemia ip in BDF1 mice, survival T/C
Test: NCI In Vivo Anticancer Drug Screen. Data for tumor model L1210 Leukemia (intraperitoneal) in B6D2F1 (BDF1) mice
Details: endpoint: mean survival time, higher = longer survival
In short: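 Tumor cells were implanted, animals were treated, and survival was followed. The result divides the treated measurement by the vehicle-control measurement.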

[1] = dose: 100.0 mg/kg/injection, schedule: Q01DX001 (ip), vehicle: carboxymethylcellulose (CMC)
[2] = dose: 200.0 mg/kg/injection, schedule: Q01DX001 (ip), vehicle: carboxymethylcellulose (CMC)
[3] = dose: 200.0 mg/kg/injection, schedule: Q04DX002 (ip), vehicle: Klucel (hydroxypropylcellulose) (HPC)
[4] = dose: 400.0 mg/kg/injection, schedule: Q04DX002 (ip), vehicle: Klucel (hydroxypropylcellulose) (HPC)
[5] = dose: 100.0 mg/kg/injection, schedule: Q04DX002 (ip), vehicle: Klucel (hydroxypropylcellulose) (HPC)

Measured: T/C

CNC=O
inactive: dose: 32.0 mg/kg/injection, schedule: Q01DX015 (ip), vehicle: saline 94 % of control | dose: 42.87 mg/kg/injection, schedule: Q01DX Z (ip), vehicle: carboxymethylcellulose (CMC) 102 % of control | dose: 42.88 mg/kg/injection, schedule: Q01DX Z (ip), vehicle: carboxymethylcellulose (CMC) 107 % of control | dose: 44.12 mg/kg/injection, schedule: Q01DX Z (ip), vehicle: carboxymethylcellulose (CMC) 98 % of control | dose: 63.0 mg/kg/injection, schedule: Q01DX015 (ip), vehicle: saline 94 % of control | dose: 75.0 mg/kg/injection, schedule: Q01DX009 (ip), vehicle: saline 112 % of control | dose: 85.75 mg/kg/injection, schedule: Q01DX Z (ip), vehicle: carboxymethylcellulose (CMC) 103 % of control and 113 % of control | dose: 125.0 mg/kg/injection, schedule: Q01DX015 (ip), vehicle: saline 102 % of control | dose: 125.0 mg/kg/injection, schedule: Q01DX Z (ip), vehicle: saline 110 % of control | dose: 150.0 mg/kg/injection, schedule: Q01DX009 (ip), vehicle: saline 112 % of control | dose: 150.0 mg/kg/injection, schedule: Q01DX Z (ip), vehicle: saline 114 % of control | dose: 171.5 mg/kg/injection, schedule: Q01DX Z (ip), vehicle: carboxymethylcellulose (CMC) 110 % of control and 115 % of control | dose: 176.5 mg/kg/injection, schedule: Q01DX Z (ip), vehicle: carboxymethylcellulose (CMC) 111 % of control | dose: 225.0 mg/kg/injection, schedule: Q01DX001 (ip), vehicle: saline 101 % of control | dose: 225.0 mg/kg/injection, schedule: Q04DX003 (ip), vehicle: saline 97 % of control | dose: 250.0 mg/kg/injection, schedule: Q01DX015 (ip), vehicle: saline 110 % of control | dose: 300.0 mg/kg/injection, schedule: Q01DX009 (ip), vehicle: saline 121 % of control | dose: 343.0 mg/kg/injection, schedule: Q01DX Z (ip), vehicle: carboxymethylcellulose (CMC) 101 % of control and 118 % of control | dose: 353.0 mg/kg/injection, schedule: Q01DX Z (ip), vehicle: carboxymethylcellulose (CMC) 100 % of control | dose: 450.0 mg/kg/injection, schedule: Q01DX001 (ip), vehicle: saline 97 % of control | dose: 450.0 mg/kg/injection, schedule: Q04DX003 (ip), vehicle: saline 101 % of control | dose: 600.0 mg/kg/injection, schedule: Q01DX Z (ip), vehicle: saline 121 % of control | dose: 900.0 mg/kg/injection, schedule: Q01DX001 (ip), vehicle: saline 95 % of control | dose: 900.0 mg/kg/injection, schedule: Q04DX003 (ip), vehicle: saline 119 % of control | dose: 1000.0 mg/kg/injection, schedule: Q01DX015 (ip), vehicle: saline 105 % of control

OC(c1ccccc1)(c1ccccc1)C(F)(F)C(F)(F)C(F)(F)F
inactive: dose: 222.0 mg/kg/injection, schedule: Q01DX Z (ip), vehicle: methylcellulose (MC) 89 % of control | dose: 333.0 mg/kg/injection, schedule: Q01DX Z (ip), vehicle: methylcellulose (MC) 96 % of control

[N-]=[N+]=NC(=O)C1C2CC3C(C2)C31 (centres undefined)
inactive: [1] 95 % of control | [2] 88 % of control

C=CC[n+]1ccccc1Cc1ccccc1
inactive: dose: 6.25 mg/kg/injection, schedule: Q01DX009 (ip), vehicle: saline 100 % of control | dose: 12.5 mg/kg/injection, schedule: Q01DX009 (ip), vehicle: saline 108 % of control | dose: 12.5 mg/kg/injection, schedule: Q04DX003 (ip), vehicle: saline 104 % of control | dose: 25.0 mg/kg/injection, schedule: Q01DX009 (ip), vehicle: saline 103 % of control | dose: 25.0 mg/kg/injection, schedule: Q04DX003 (ip), vehicle: saline 107 % of control

COC(=O)CSC(=S)N(C)C
inactive: dose: 100.0 mg/kg/injection, schedule: Q04DX003 (ip), vehicle: saline with Tween-80 91 % of control | dose: 200.0 mg/kg/injection, schedule: Q04DX003 (ip), vehicle: saline with Tween-80 91 % of control | dose: 400.0 mg/kg/injection, schedule: Q04DX003 (ip), vehicle: saline with Tween-80 94 % of control

C(=N\Nc1nc2ccccc2o1)/c1ccncc1
inactive: dose: 100.0 mg/kg/injection, schedule: Q01DX009 (ip), vehicle: Klucel (hydroxypropylcellulose) (HPC) 95 % of control | dose: 200.0 mg/kg/injection, schedule: Q01DX009 (ip), vehicle: Klucel (hydroxypropylcellulose) (HPC) 104 % of control | dose: 400.0 mg/kg/injection, schedule: Q01DX009 (ip), vehicle: Klucel (hydroxypropylcellulose) (HPC) 104 % of control

COC12C(COC(=O)NCCO)C3=C(C(=O)C(C)=C(N)C3=O)N1CC1NC12 (centres undefined)
inactive: dose: 5.0 mg/kg/injection, schedule: Q01DX009 (ip), vehicle: saline 121 % of control | dose: 10.0 mg/kg/injection, schedule: Q01DX009 (ip), vehicle: saline 122 % of control | dose: 12.0 mg/kg/injection, schedule: Q04DX003 (ip), vehicle: Klucel (hydroxypropylcellulose) (HPC) 94 % of control | dose: 19.0 mg/kg/injection, schedule: Q04DX003 (ip), vehicle: Klucel (hydroxypropylcellulose) (HPC) 111 % of control | dose: 28.0 mg/kg/injection, schedule: Q04DX003 (ip), vehicle: Klucel (hydroxypropylcellulose) (HPC) 111 % of control | dose: 40.0 mg/kg/injection, schedule: Q01DX009 (ip), vehicle: saline 102 % of control | dose: 43.0 mg/kg/injection, schedule: Q01DX001 (ip), vehicle: Klucel (hydroxypropylcellulose) (HPC) 121 % of control | dose: 43.0 mg/kg/injection, schedule: Q01DX009 (ip), vehicle: Klucel (hydroxypropylcellulose) (HPC) 109 % of control | dose: 43.0 mg/kg/injection, schedule: Q04DX003 (ip), vehicle: Klucel (hydroxypropylcellulose) (HPC) 115 % of control | dose: 100.0 mg/kg/injection, schedule: Q01DX003 (ip), vehicle: Klucel (hydroxypropylcellulose) (HPC) 103 % of control | dose: 150.0 mg/kg/injection, schedule: Q01DX001 (ip), vehicle: Klucel (hydroxypropylcellulose) (HPC) 102 % of control | dose: 150.0 mg/kg/injection, schedule: Q01DX003 (ip), vehicle: Klucel (hydroxypropylcellulose) (HPC) 94 % of control | [3] 91 % of control | dose: 225.0 mg/kg/injection, schedule: Q01DX001 (ip), vehicle: Klucel (hydroxypropylcellulose) (HPC) 91 % of control | dose: 225.0 mg/kg/injection, schedule: Q01DX003 (ip), vehicle: Klucel (hydroxypropylcellulose) (HPC) 95 % of control | [4] 91 % of control

CCOC(=O)CNc1ccc(F)cc1Cl
inactive: [5] 105 % of control | [3] 101 % of control | [4] 105 % of control

COC(=O)c1cccc(Cl)c1-c1c(Cl)cccc1C(=O)OC
inactive: [5] 96 % of control | [3] 108 % of control | [4] 92 % of control

COc1ccc(NC(=O)CCc2ccccc2)cc1
inactive: dose: 12.5 mg/kg/injection, schedule: Q01DX001 (ip), vehicle: Klucel (hydroxypropylcellulose) (HPC) 98 % of control | dose: 25.0 mg/kg/injection, schedule: Q01DX001 (ip), vehicle: Klucel (hydroxypropylcellulose) (HPC) 88 % of control | dose: 50.0 mg/kg/injection, schedule: Q01DX001 (ip), vehicle: Klucel (hydroxypropylcellulose) (HPC) 93 % of control | dose: 100.0 mg/kg/injection, schedule: Q01DX001 (ip), vehicle: Klucel (hydroxypropylcellulose) (HPC) 86 % of control | dose: 200.0 mg/kg/injection, schedule: Q01DX001 (ip), vehicle: Klucel (hydroxypropylcellulose) (HPC) 88 % of control | dose: 400.0 mg/kg/injection, schedule: Q01DX001 (ip), vehicle: Klucel (hydroxypropylcellulose) (HPC) 91 % of control

CC1=CC2CCC1C2 (centres undefined)
inactive: dose: 75.0 mg/kg/injection, schedule: Q01DX001 (ip), vehicle: acetone 101 % of control | dose: 150.0 mg/kg/injection, schedule: Q01DX001 (ip), vehicle: acetone 95 % of control

CN(C)c1ccc2c(c1)oc(=O)c1ccccc12
inactive: dose: 50.0 mg/kg/injection, schedule: Q01DX001 (ip), vehicle: carboxymethylcellulose (CMC) 93 % of control | [1] 104 % of control | [2] 112 % of control | dose: 400.0 mg/kg/injection, schedule: Q01DX001 (ip), vehicle: carboxymethylcellulose (CMC) 91 % of control

Cn1nc(SCc2ccccc2)c(=O)[nH]c1=O
inactive: dose: 75.0 mg/kg/injection, schedule: Q01DX001 (ip), vehicle: saline 97 % of control | dose: 150.0 mg/kg/injection, schedule: Q01DX001 (ip), vehicle: saline 104 % of control

CCCCN=Cc1cc([N+](=O)[O-])ccc1O.CCCCN=Cc1cc([N+](=O)[O-])ccc1O.[Ni]
inactive: dose: 12.5 mg/kg/injection, schedule: Q01DX009 (ip), vehicle: saline with Tween-80 98 % of control | dose: 25.0 mg/kg/injection, schedule: Q01DX009 (ip), vehicle: saline with Tween-80 94 % of control | dose: 50.0 mg/kg/injection, schedule: Q01DX009 (ip), vehicle: saline with Tween-80 86 % of control

Source: PubChem BioAssay AID248 (DTP/NCI, 2004)
